The source made the active and inactive calls. No cut-off for these calls is given here.
Assays:
HeLa = assay: Cytotoxicity against human HeLa cells after 72 hrs by WST8 assay; assay type: functional, cell-based
HUVEC [1] = assay: Inhibition of protein tyrosine kinase in HUVEC lysates at 10 ug/ml after 2 hrs; assay type: cell-based; conditions: Homo sapiens
HUVEC [2] = assay: Antiangiogenic activity against HUVEC assessed as inhibition VEGF-stimulated tubule formation at 10 ug/ml after 11 days by microscopy; assay type: functional, cell-based; conditions: Homo sapiens
HUVEC [3] = assay: Inhibition of VEGF-induced HUVEC migration at 10 ug/ml after 22 hrs by microscopy; assay type: functional; conditions: Homo sapiens
HUVEC [4] = assay: Inhibition of protein tyrosine kinase in HUVEC lysates at 100 ug/ml after 2 hrs; assay type: cell-based; conditions: Homo sapiens
HUVEC [5] = assay: Antiproliferative activity against HUVEC after 72 hrs by MTT assay; assay type: cell-based; conditions: Homo sapiens
HUVEC [6] = assay: Inhibition of VEGF-induced HUVEC migration at 0.1 ug/ml after 22 hrs by microscopy; assay type: functional; conditions: Homo sapiens
HUVEC [7] = assay: Inhibition of VEGF-induced HUVEC migration at 1 ug/ml after 22 hrs by microscopy; assay type: functional; conditions: Homo sapiens
NHDF [8] = assay: Antiangiogenic activity against NHDF assessed as inhibition VEGF-stimulated tubule formation at 10 ug/ml after 11 days by microscopy; assay type: functional, cell-based; conditions: Homo sapiens
HUVEC [9] = assay: Inhibition of VEGF-induced HUVEC migration after 22 hrs by microscopy; assay type: functional, cell-based; conditions: Homo sapiens
NHDF [10] = assay: Cytotoxicity against NHDF after 72 hrs by WST8 assay; assay type: cell-based; conditions: Homo sapiens
HUVEC [11] = assay: Inhibition of protein tyrosine kinase in HUVEC lysates at 1 ug/ml after 2 hrs; assay type: cell-based; conditions: Homo sapiens
[12] = Inhibition of protein tyrosine kinase in HUVEC lysates after 2 hrs; assay type: cell-based, Homo sapiens
P388 [13] = assay: Antitumor activity against mouse P388 cells xenografted in mouse at 20 mg/kg; assay type: functional, organism-based; set-up: dose 20 mg/kg
P388 [14] = assay: Antitumor activity against mouse P388 cells xenografted in mouse; assay type: functional
Mus musculus [15] = species on record: Mus musculus; assay: Toxicity in mouse assessed as reduction of body weight; assay type: organism-based; conditions: in vivo
Mus musculus [16] = assay: Toxicity in mouse at 60 mg/kg; assay type: organism-based; set-up: dose 60 mg/kg; conditions: in vivo

| Structure (SMILES) | inhibition (HUVEC [1]) [%] | inhibition (HUVEC [2]) | inhibition at 10 µg/mL (HUVEC [3]) [%] | inhibition (HUVEC [4]) [%] | IC50 (HUVEC [5]) [µM] | inhibition at 0.1 µg/mL (HUVEC [6]) [%] | inhibition at 1 µg/mL (HUVEC [7]) [%] | inhibition (NHDF [8]) | IC50 (HUVEC [9]) [µM] | inhibition (HUVEC [11]) [%] | IC50 [12] [µM] | Activity (P388 [14]) | Activity (Mus musculus [15]) | other results |
| --- | --- | --- | --- | --- | --- | --- | --- | --- | --- | --- | --- | --- | --- | --- |
| CC(=O)Cc1cc(=O)c2c(O)c3c(O)cc(O)c(-c4c(O)cc(O)c5c(O)c6c(=O)cc(CC(C)=O)oc6cc45)c3cc2o1 | 38.3 | Active | 86.7 | 66.2 | 17.4 | 20 | 57.8 | Active | 1.09 | 11 | 42.1 |  |  | IC50 (HeLa): 209 µM; IC50 (NHDF [10]): > 500 µM |
| C[C@H]1Oc2cc3c(-c4c(O)cc(O)c5c(O)c6c(cc45)O[C@H](C)[C@@H](C)C6=O)c(O)cc(O)c3c(O)c2C(=O)[C@@H]1C |  |  |  |  |  |  |  |  |  |  |  |  |  | Activity (P388 [13]): Active |
| C[C@@H]1Oc2cc3c(-c4c(O)cc(O)c5c(O)c6c(cc45)O[C@H](C)[C@@H](C)C6=O)c(O)cc(O)c3c(O)c2C(=O)[C@@H]1C [CHAETOCHROMIN B] |  |  |  |  |  |  |  |  |  |  |  | Active | Toxic |  |
| CC1CC(=O)c2c(cc3c(-c4c(O)cc(O)c5c(O)c6c(cc45)O[C@H](C)[C@@H](C)C6=O)c(O)cc(O)c3c2O)O1 (stereo not given in full) [CHAETOCHROMIN C] |  |  |  |  |  |  |  |  |  |  |  | Active | Toxic |  |
| Cc1oc2cc3c(-c4c(O)cc(O)c5c(O)c6c(cc45)O[C@@H](C)[C@H](C)C6=O)c(O)cc(O)c3c(O)c2c(=O)c1C [CHAETOCHROMIN D] |  |  |  |  |  |  |  |  |  |  |  | Active | Toxic |  |
| CC(=O)Cc1cc(=O)c2c(O)c3c(O)cc(O)c(-c4c(O)cc(O)c5c(O)c6c(=O)cc(CC(C)O)oc6cc45)c3cc2o1 (stereo not given) [HYPOCHROMIN A] | 21.9 | Active | 100 | 73.4 | 50 | 28.9 | 62.2 | Active | 0.87 | 0 | 58.7 |  |  |  |
| CC(=O)Cc1cc(=O)c2c(O)c3c(O)cc(O)c(-c4c(O)cc(O)c5c(O)c6c(=O)cc(C)oc6cc45)c3cc2o1 [HYPOCHROMIN B] | 50 | Active | 95.6 | 72.4 | 13.1 | 33.3 | 53.3 | Active | 1.51 | 12.4 | 18 |  |  |  |
| Cc1cc(=O)c2c(O)c3c(O)cc(O)c(-c4c(O)cc(O)c5c(O)c6c(=O)cc(C)oc6cc45)c3cc2o1 [USTILAGINOIDIN A] |  |  |  |  |  |  |  |  |  |  |  |  |  | Activity (Mus musculus [16]): Toxic |
| Cc1cc(=O)c2c(O)c3c(O)cc(O)c(-c4c(O)cc(O)c5c(O)c6c(cc45)OC(C)CC6=O)c3cc2o1 (stereo not given) [USTILAGINOIDIN G] |  |  |  |  |  |  |  |  |  |  |  | Active | Toxic |  |

— ChEMBL document CHEMBL1157075, “Antiangiogenic metabolites from a marine-derived fungus, Hypocrea vinosa” (J Nat Prod, 2010)
